The source of these data is patent US11566022B2, “3-(5-methoxy-1-oxoisoindolin-2-yl)piperidine-2,6-dione derivatives and uses thereof” (NOVARTIS AG, priority 2019, dated 2023).

Like-named read-outs stand apart in the source and are kept apart here.

This assay deals with HiBit-WIZ fusion protein (Homo sapiens, UniProt O95785+Q96SW2). Description: Quantification of WIZ protein levels in HiBit tag fusion protein assay (WIZ HiBit assay in 293T cells). The format is cell-based. The arrangement: Dmax: dose or concentration left out as unconfirmed. The following applies: for remaining activity at up to 25 µM: DMSO-normalized, curve-fitted percentage of WIZ-HiBit remaining at 25 uM, read-out: WIZ Amax; for DC50: WIZ HiBit assay in 293T cells, 10-point, 5-fold dose response, highest concentration 25 μM, about 18 hours, read-out: WIZ AC50.
Sequence of HiBit-WIZ fusion protein (O95785 whole entry, the tested form may be a part): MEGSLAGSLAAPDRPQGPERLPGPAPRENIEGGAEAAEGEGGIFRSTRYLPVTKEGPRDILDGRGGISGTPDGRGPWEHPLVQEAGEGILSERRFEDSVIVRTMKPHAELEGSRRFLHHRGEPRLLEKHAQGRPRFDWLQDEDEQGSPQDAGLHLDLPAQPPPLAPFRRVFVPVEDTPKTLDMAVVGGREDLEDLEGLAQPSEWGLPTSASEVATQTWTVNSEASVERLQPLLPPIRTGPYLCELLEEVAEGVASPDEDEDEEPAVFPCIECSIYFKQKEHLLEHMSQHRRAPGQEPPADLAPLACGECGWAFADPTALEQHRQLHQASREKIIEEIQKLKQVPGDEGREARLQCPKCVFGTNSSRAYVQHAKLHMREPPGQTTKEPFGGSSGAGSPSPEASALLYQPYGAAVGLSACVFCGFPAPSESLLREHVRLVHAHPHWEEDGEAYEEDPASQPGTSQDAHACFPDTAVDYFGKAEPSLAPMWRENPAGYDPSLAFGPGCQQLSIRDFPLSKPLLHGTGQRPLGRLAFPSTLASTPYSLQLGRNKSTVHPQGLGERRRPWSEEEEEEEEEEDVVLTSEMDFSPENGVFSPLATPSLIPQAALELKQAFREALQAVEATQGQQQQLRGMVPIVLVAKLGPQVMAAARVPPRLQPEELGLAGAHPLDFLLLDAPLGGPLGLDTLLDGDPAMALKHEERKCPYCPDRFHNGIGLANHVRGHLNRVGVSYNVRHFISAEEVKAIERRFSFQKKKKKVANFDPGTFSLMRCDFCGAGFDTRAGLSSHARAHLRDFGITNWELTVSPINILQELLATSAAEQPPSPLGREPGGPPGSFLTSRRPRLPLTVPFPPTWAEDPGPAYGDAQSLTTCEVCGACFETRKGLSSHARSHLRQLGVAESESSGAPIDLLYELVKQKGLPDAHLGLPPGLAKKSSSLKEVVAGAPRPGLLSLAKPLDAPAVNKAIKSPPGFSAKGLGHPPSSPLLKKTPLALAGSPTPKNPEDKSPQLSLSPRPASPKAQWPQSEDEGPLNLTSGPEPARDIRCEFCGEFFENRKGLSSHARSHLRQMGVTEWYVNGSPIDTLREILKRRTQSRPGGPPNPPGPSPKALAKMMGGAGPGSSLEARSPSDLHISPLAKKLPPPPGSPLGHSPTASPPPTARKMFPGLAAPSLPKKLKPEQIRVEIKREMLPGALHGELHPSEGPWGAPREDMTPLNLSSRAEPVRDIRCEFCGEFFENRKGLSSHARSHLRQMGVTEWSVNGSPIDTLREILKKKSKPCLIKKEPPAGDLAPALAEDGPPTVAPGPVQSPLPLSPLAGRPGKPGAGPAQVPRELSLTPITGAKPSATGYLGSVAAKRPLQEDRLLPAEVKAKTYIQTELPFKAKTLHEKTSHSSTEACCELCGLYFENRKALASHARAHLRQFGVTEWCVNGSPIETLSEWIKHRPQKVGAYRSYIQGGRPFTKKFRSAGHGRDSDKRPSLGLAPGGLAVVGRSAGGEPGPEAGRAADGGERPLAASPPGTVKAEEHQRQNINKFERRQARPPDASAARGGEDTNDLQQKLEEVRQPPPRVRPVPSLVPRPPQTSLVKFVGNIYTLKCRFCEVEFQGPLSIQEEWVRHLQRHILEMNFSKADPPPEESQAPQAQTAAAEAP
Sequence of HiBit-WIZ fusion protein (Q96SW2 whole entry, the tested form may be a part): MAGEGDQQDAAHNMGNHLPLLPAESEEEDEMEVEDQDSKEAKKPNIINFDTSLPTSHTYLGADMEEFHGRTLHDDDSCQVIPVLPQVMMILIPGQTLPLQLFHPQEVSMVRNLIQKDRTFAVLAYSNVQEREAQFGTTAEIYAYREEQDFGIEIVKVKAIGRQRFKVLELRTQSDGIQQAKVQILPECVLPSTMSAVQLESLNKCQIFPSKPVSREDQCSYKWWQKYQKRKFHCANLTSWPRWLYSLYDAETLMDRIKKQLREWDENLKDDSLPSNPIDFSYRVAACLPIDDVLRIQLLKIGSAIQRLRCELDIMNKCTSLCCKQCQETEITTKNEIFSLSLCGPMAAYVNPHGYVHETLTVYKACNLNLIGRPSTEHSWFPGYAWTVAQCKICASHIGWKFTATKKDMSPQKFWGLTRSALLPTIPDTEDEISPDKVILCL
Sequence of HiBit-WIZ fusion protein (Q16531 whole entry partner, the tested form may be a part): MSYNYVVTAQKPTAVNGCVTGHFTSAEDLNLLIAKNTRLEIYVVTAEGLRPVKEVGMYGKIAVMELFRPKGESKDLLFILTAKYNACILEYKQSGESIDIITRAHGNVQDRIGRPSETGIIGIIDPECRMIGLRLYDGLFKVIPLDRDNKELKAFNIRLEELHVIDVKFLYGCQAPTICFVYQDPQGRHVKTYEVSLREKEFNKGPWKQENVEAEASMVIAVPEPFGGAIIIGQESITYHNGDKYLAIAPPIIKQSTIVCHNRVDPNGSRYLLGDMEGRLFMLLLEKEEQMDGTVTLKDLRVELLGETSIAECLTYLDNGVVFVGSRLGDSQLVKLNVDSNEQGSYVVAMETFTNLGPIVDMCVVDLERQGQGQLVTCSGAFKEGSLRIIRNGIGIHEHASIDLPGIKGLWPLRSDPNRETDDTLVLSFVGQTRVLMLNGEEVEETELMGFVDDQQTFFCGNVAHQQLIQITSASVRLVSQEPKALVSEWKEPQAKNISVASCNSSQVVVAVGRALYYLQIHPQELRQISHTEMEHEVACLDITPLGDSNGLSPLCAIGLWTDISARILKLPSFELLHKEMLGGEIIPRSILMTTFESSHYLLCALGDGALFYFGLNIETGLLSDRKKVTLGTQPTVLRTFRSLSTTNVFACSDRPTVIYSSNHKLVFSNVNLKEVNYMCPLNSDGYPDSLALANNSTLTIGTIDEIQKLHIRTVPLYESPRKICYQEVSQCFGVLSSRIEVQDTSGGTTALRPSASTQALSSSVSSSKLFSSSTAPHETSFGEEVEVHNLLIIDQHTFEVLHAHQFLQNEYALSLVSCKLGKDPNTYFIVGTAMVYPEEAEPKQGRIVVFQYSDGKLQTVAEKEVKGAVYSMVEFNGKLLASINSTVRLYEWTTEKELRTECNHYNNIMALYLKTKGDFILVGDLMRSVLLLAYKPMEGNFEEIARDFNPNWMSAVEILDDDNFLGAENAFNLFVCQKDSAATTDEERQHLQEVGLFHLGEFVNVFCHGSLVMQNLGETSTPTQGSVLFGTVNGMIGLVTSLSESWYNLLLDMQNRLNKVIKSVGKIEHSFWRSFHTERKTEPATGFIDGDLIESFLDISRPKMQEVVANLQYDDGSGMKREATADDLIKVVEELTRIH

[1] abbreviates: HEK-293T, 100 minus Amax, 293T cells, read-out: % degradation of WIZ (100-Amax).

Turning to `O=C1CCC(N2Cc3cc(OC[C@@H]4CCCCN4C(=O)c4ccnnc4)ccc3C2=O)C(=O)N1` (stereo partly drawn) [Compound I-72kc], the DC50 is above 25000 nM. The Dmax under setting [1] came to 9.4%. Besides, the remaining activity at up to 25 µM (HEK-293T, 293T cells) was found to be 90.6%.
`O=C1CCC(N2Cc3cc(OC[C@@H]4CCCCN4C(=O)Cc4cscn4)ccc3C2=O)C(=O)N1` (stereo partly drawn) [Compound I-72m]: the DC50 was above 25000 nM. For the same compound, under setting [1], the Dmax was determined as 8.4%. Further, under “HEK-293T, 293T cells”, the remaining activity at up to 25 µM is 91.6%.
On the same counts, the results for `Cc1nc(C(F)(F)F)ccc1C(=O)N1CCCC[C@H]1COc1ccc2c(c1)CN(C1CCC(=O)NC1=O)C2=O` (stereo partly drawn) [Compound I-72n] are above 25000 nM, 23.4% and 76.6%.
As to `CCc1noc(CC)c1C(=O)N1CCCC[C@H]1COc1ccc2c(c1)CN(C1CCC(=O)NC1=O)C2=O` (stereo partly drawn) [Compound I-72s], the DC50 is 962 nM. In addition, the Dmax under setting [1] was 78.2%. Further, the remaining activity at up to 25 µM (HEK-293T, 293T cells) came out at 21.8%.
Turning to `CCCCCc1ccc(C(=O)N2CCCC[C@H]2COc2ccc3c(c2)CN(C2CCC(=O)NC2=O)C3=O)cc1` (stereo partly drawn) [Compound I-72t], the DC50 was found to be 1470 nM. The Dmax under setting [1] turned out to be 69.9%. Moreover, where the note is “HEK-293T, 293T cells”, the remaining activity at up to 25 µM was 30.1%.
The corresponding values for `N#CCCN1CCN(CC(=O)N2CCCC[C@H]2COc2ccc3c(c2)CN(C2CCC(=O)NC2=O)C3=O)CC1` (stereo partly drawn) [Compound I-72x] are above 25000 nM, 0% and 100%.
`N#CC1(c2cc(C(=O)N3CCCC[C@H]3COc3ccc4c(c3)CN(C3CCC(=O)NC3=O)C4=O)ccn2)CC1` (stereo partly drawn) [Compound I-72y]: the DC50 is above 25000 nM. Further, the Dmax under setting [1] came out at 2.9%. For the same compound, the remaining activity at up to 25 µM (HEK-293T, 293T cells) amounted to 97.1%.
On the same counts, the results for `COc1ccccc1C(=O)N1CCC[C@@H]1COc1ccc2c(c1)CN(C1CCC(=O)NC1=O)C2=O` (stereo partly drawn) [Compound I-83, 3-(5-(((R)-1-(2-methoxybenzoyl)pyrrolidin-2-yl)methoxy)-1-oxoisoindolin-2-yl)piperidine-2,6-dione] are above 25000 nM, 16.8% and 83.2%.
On the same counts, the results for `O=C1CCC(N2Cc3cc(OC[C@@H]4CC(F)(F)CN4)ccc3C2=O)C(=O)N1` (stereo partly drawn) [Compound I-84, 3-(5-(((S)-4,4-difluoropyrrolidin-2-yl)methoxy)-1-oxoisoindolin-2-yl)piperidine-2,6-dione] are above 25000 nM, 21.2% and 78.8%.
On the same counts, the results for `CO[C@H]1C[C@H](CN2CCCC[C@@H]2COc2ccc3c(c2)CN(C2CCC(=O)NC2=O)C3=O)C1` (stereo partly drawn) [Compound I-97, 3-(5-(((R)-1-(((1r,3R)-3-methoxycyclobutyl)methyl)piperidin-2-yl)methoxy)-1-oxoisoindolin-2-yl)piperidine-2,6-dione] are 140 nM, 91.8% and 8.17%.
As for `O=C1CCC(N2Cc3cc(OC[C@H]4CCCCN4CC45CC(F)(C4)C5)ccc3C2=O)C(=O)N1` (stereo partly drawn) [Compound I-100, 3-(5-(((R)-1-((3-fluorobicyclo[1.1.1]pentan-1-yl)methyl)piperidin-2-yl)methoxy)-1-oxoisoindolin-2-yl)piperidine-2,6-dione], the DC50 was found to be 410 nM. Besides, under setting [1], the Dmax is 82.2%. The remaining activity at up to 25 µM (HEK-293T, 293T cells) stood at 17.8%.
Turning to `O=C1CCC(N2Cc3cc(OC[C@H]4CCCCN4Cc4ccccc4N4CCOCC4)ccc3C2=O)C(=O)N1` (stereo partly drawn) [Compound I-101], the DC50 amounted to 72 nM. Besides, the Dmax under setting [1] is 96%. Moreover, the remaining activity at up to 25 µM (HEK-293T, 293T cells) amounted to 3.95%.
The corresponding values for `O=C1CCC(N2Cc3cc(OC[C@H]4CCCCN4Cc4ccc(N5CCN(CC6CC6)CC5)cc4)ccc3C2=O)C(=O)N1` (stereo partly drawn) [Compound I-102, 3-(5-(((R)-1-(4-(4-(cyclopropylmethyl)piperazin-1-yl)benzyl)piperidin-2-yl)methoxy)-1-oxoisoindolin-2-yl)piperidine-2,6-dione] are 240 nM, 82.7% and 17.3%.
On the same counts, the results for `O=C1CCC(N2Cc3cc(OC[C@H]4CCCCN4CC4CC5(COC5)C4)ccc3C2=O)C(=O)N1` (stereo partly drawn) [Compound I-104, 3-(5-(((R)-1-((2-oxaspiro[3.3]heptan-6-yl)methyl)piperidin-2-yl)methoxy)-1-oxoisoindolin-2-yl)piperidine-2,6-dione] are 540 nM, 87.1% and 12.9%.
On the same counts, the results for `CC(C)(C)OC(=O)N1CCN(c2ccccc2CN2CCCC[C@@H]2COc2ccc3c(c2)CN(C2CCC(=O)NC2=O)C3=O)CC1` (stereo partly drawn) [Compound I-105, Tert-butyl 4-(2-(((2R)-2-(((2-(2,6-dioxopiperidin-3-yl)-1-oxoisoindolin-5-yl)oxy)methyl)piperidin-1-yl)methyl)phenyl)piperazine-1-carboxylate] are 55 nM, 94.8% and 5.23%.
As to `O=C1CCC(N2Cc3cc(OC[C@H]4CCCCN4Cc4ccccc4N4CCNCC4)ccc3C2=O)C(=O)N1` (stereo partly drawn) [Compound I-106, 3-(1-oxo-5-(((R)-1-(2-(piperazin-1-yl)benzyl)piperidin-2-yl)methoxy)isoindolin-2-yl)piperidine-2,6-dione], the DC50 is 2560 nM. In addition, under setting [1], the Dmax was 80.1%. In addition, for the setting “HEK-293T, 293T cells”, the remaining activity at up to 25 µM amounted to 19.9%.
On the same counts, the results for `CC(C)CN1CCN(c2ccccc2CN2CCCC[C@@H]2COc2ccc3c(c2)CN(C2CCC(=O)NC2=O)C3=O)CC1` (stereo partly drawn) [Compound I-107, 3-(5-(((R)-1-(2-(4-isobutylpiperazin-1-yl)benzyl)piperidin-2-yl)methoxy)-1-oxoisoindolin-2-yl)piperidine-2,6-dione] are 16 nM, 99.8% and 0.21%.
The corresponding values for `O=C1CCC(N2Cc3cc(OC[C@H]4CCCCN4Cc4ccccc4N4CCN(CC5CCOCC5)CC4)ccc3C2=O)C(=O)N1` (stereo partly drawn) [Compound I-108, 3-(1-oxo-5-(((R)-1-(2-(4-((tetrahydro-2H-pyran-4-yl)methyl)piperazin-1-yl)benzyl)piperidin-2-yl)methoxy)isoindolin-2-yl)piperidine-2,6-dione] are 25 nM, 98.1% and 1.93%.
In the case of `O=C1CCC(N2Cc3cc(OC[C@H]4CCCCN4Cc4ccc(N5CCN(C6CCOCC6)CC5)cc4)ccc3C2=O)C(=O)N1` (stereo partly drawn) [Compound I-109, 3-(1-oxo-5-(((R)-1-(4-(4-(tetrahydro-2H-pyran-4-yl)piperazin-1-yl)benzyl)piperidin-2-yl)methoxy)isoindolin-2-yl)piperidine-2,6-dione], the DC50 came to 1500 nM. Under setting [1], the Dmax stood at 70.1%. Moreover, the remaining activity at up to 25 µM (HEK-293T, 293T cells) stood at 29.9%.
On the same counts, the results for `CC(C)(C)OC(=O)N1CCc2cccc(CN3CCCC[C@@H]3COc3ccc4c(c3)CN(C3CCC(=O)NC3=O)C4=O)c21` (stereo partly drawn) [Compound I-110, Tert-butyl 7-(((2R)-2-(((2-(2,6-dioxopiperidin-3-yl)-1-oxoisoindolin-5-yl)oxy)methyl)piperidin-1-yl)methyl)indoline-1-carboxylate] are 8.6 nM, 99.5% and 0.48%.
On the same counts, the results for `O=C1CCC(N2Cc3cc(OC[C@H]4CCCCN4Cc4cccc5c4NCC5)ccc3C2=O)C(=O)N1` (stereo partly drawn) [Compound I-111, 3-(5-(((R)-1-(indolin-7-ylmethyl)piperidin-2-yl)methoxy)-1-oxoisoindolin-2-yl)piperidine-2,6-dione] are 11 nM, 90.7% and 9.3%.
With `CCN1CCc2cccc(CN3CCCC[C@@H]3COc3ccc4c(c3)CN(C3CCC(=O)NC3=O)C4=O)c21` (stereo partly drawn) [Compound I-112, 3-(5-(((R)-1-((1-ethylindolin-7-yl)methyl)piperidin-2-yl)methoxy)-1-oxoisoindolin-2-yl)piperidine-2,6-dione], the DC50 was 59 nM. In addition, the Dmax (HEK-293T, read-out: % degradation of WIZ (100-Amax), 100 minus Amax, 293T cells) was found to be 96.9%. The remaining activity (HEK-293T, read-out: WIZ Amax, DMSO-normalized, curve-fitted percentage of WIZ-HiBit remaining at 25 uM, 293T cells) was determined as 3.13%.
For `O=C1CCC(N2Cc3cc(OC[C@H]4CCCCN4Cc4ccc(F)cc4)ccc3C2=O)C(=O)N1` (stereo partly drawn) [Compound I-113], the DC50 amounted to 3.8 nM. Moreover, the Dmax under setting [1] amounted to 99.4%. The remaining activity at up to 25 µM (HEK-293T, 293T cells) amounted to 0.64%.
On the same counts, the results for `O=C1CCC(N2Cc3cc(OC[C@H]4CCCCN4Cc4ccc(F)cc4Cl)ccc3C2=O)C(=O)N1` (stereo partly drawn) [Compound I-114] are 18 nM, 94.5% and 5.54%.
The corresponding values for `O=C1CCC(N2Cc3cc(OC[C@H]4CCCCN4Cc4ccc(F)cn4)ccc3C2=O)C(=O)N1` (stereo partly drawn) [Compound I-115] are 170 nM, 89.5% and 10.5%.
On the same counts, the results for `CO[C@H]1C[C@@H](CN2CCCC[C@@H]2COc2ccc3c(c2)CN(C2CCC(=O)NC2=O)C3=O)C1` (stereo partly drawn) [Compound I-118, 3-(5-(((R)-1-(((1s,3S)-3-methoxycyclobutyl)methyl)piperidin-2-yl)methoxy)-1-oxoisoindolin-2-yl)piperidine-2,6-dione] are 380 nM, 85.4% and 14.6%.
Turning to `O=C1CCC(N2Cc3cc(OC[C@H]4CCCCN4Cc4ccccc4N4CCCCC4)ccc3C2=O)C(=O)N1` (stereo partly drawn) [Compound I-119], the DC50 came out at 10 nM. Further, the Dmax under setting [1] was determined as 97.4%. Further, the remaining activity at up to 25 µM (HEK-293T, 293T cells) was 2.56%.
